Measurements as given in patent US6787341B2, “Pharmacological targeting of bacterial DNA ligase for treatment and prevention of bacterial infections” (priority 2001, dated 2004).

Legend:
Format in all cases: biochemical, Amsacta moorei entomopoxvirus
[1] = molecular target: T1, AmEPV ligase (Betaentomopoxvirus amoorei, UniProt Q9EMK7); experiment: Nucleotide cofactor specificity of AmEPV ligase in nick ligation
Method: Reaction mixtures (20 μl) containing 50 mM Tris-HCl (pH 7.5), 10 mM (NH4)2SO4, 5 mM DTT, 5 mM MgCl2, 1 pmol of ^32P-labeled nicked DNA, 32 ng of AmEPV ligase, and 50 μM of the indicated nucleotide were incubated for 30 min at 22° C. A control reaction contained no added nucleotide cofactor (none). The reaction products were resolved by polyacrylamide gel electrophoresis. An autoradiogram of the gel is shown.
A low level of nick ligation could be detected in the absence of added nucleotide (FIG. 6). Cofactor-independent ligation was attributed to pre-adenylated ligase in the enzyme preparation. […] Inclusion of NAD^+ in the reaction mixture stimulated nick ligation such that ˜90% of the input substrate molecules were sealed (FIG. 6). […] Indeed, none of the standard rNTPs or dNTPs were able to satisfy the requirement of AmEPV ligase for a high energy cofactor (FIG. 6). […] A Km of 9 μM NAD^+ was calculated from a double-reciprocal plot of the data.

[2] = molecular target: T1, AmEPV ligase; conditions: for support of ligase activity as divalent cation: 5 mM
[3] = molecular target: T1, AmEPV ligase; experiment: Step 3 phosphodiester formation at a pre-adenylated nick by AmEPV ligase; conditions: 50 μM NAD+
Method: Truncated derivatives of AmEPV ligase deleted for motif Ia (NΔ70) or for the OB and HhH domains (CΔ216) were purified by Ni-agarose and phosphocellulose column cheomtography. FIG. 8A: Aliquots (3 μg) of full-sized AmEPV ligase (WT), NΔ70, and CΔ216 were analyzed by SDS-PAGE. A Coomassie blue-stained gel is shown. The positions and sizes (in kDa) of marker proteins are indicated on the left. FIG. 8B: Ligase adenylation reaction mixtures (20 μl) containing 50 mM Tris-HCl (pH 7.5), 5 mM DTT, 5 mM MgCl2, 1 μM [α-^32P]NAD^+ and 8 pmol of WT AmEPV ligase, NΔ70, or CΔ216 were incubated for 15 min at 22° C. The reaction products were resolved by SDS-PAGE and visualized by autoradiography. The positions and sizes (in kDa) of marker proteins are indicated on the right. FIG. 8C: Ligation of nicked DNA and nicked DNA-adenylate. Reaction mixtures (20 μl) containing 50 mM Tris-HCl (pH 7.5), 10 mM (NH4)2SO4, 5 mM DTT, 5 mM MgCl2, either 200 fmol of ^32P-labeled nicked DNA (pDNA) plus 50 μM NAD^+ or 200 fmol ^32P-labeled nicked DNA-adenylate (AppDNA) and no NAD^+, and 2 pmol of WT AmEPV ligase, NΔ70, or CΔ216 were incubated for 30 min at 22° C. The reaction products were resolved by denaturing PAGE. […]
FIG. 9A: Kinetic analysis of step 3. […] The mixtures were adjusted to 5% glycerol and then analyzed by electrophoresis through a 5% native polyacrylamide gel containing 90 mM Tris-borate, 2.5 mM EDTA. […]

Nc1ncnc2c1ncn2[C@@H]1O[C@H](COP(=O)(O)OP(=O)(O)OP(=O)(O)O)[C@@H](O)[C@H]1O [ATP]
stimulation of nick ligation as high energy cofactor ([1]; 50 μM nucleotide): failed to stimulate

[Ca+2] [calcium]
support of ligase activity as divalent cation [2]: did not support ligase activity

[Mg+2] [magnesium]
optimal divalent cation concentration for nick joining [2]: 5 mM

NC(=O)c1ccc[n+]([C@@H]2O[C@H](COP(=O)([O-])OP(=O)(O)OC[C@H]3O[C@@H](n4cnc5c(N)ncnc54)[C@H](O)[C@@H]3O)[C@@H](O)[C@H]2O)c1 [NAD^+]
input substrate molecules sealed with nucleotide included ([1]; 50 μM nucleotide): ~90% | NAD+ concentration at which nick joining activity plateaued ([1]; sub-saturating enzyme): 50 to 100 µM | effect on step 3 catalysis by NΔ70 ([3]; NΔ70): no effect whatsoever | decrement in extent of step 3 ligation by wild-type ligase ([3]; wild-type AmEPV ligase): 5 fold

[Zn+2] [zinc]
support of ligase activity as divalent cation [2]: did not support ligase activity

[Mn+2] [Manganese]
support of ligase activity as divalent cation [2]: active, albeit less than magnesium

NC(=O)c1ccc[n+]([C@@H]2O[C@H](COP(=O)([O-])OP(=O)(O)OC[C@H]3O[C@@H](n4cnc5c(N)ncnc54)[C@H](OP(=O)(O)O)[C@@H]3O)[C@@H](O)[C@H]2O)c1 [NADP]
stimulation of nick ligation as high energy cofactor ([1]; 50 μM nucleotide): inactive

[Cu+2] [cooper]
support of ligase activity as divalent cation [2]: did not support ligase activity

[Co+2] [cobalt]
support of ligase activity as divalent cation [2]: active, albeit less than magnesium
